Values quoted from earlier work in patent US20230405009A1, “METHODS FOR TREATING HEMATOLOGIC MALIGNANCIES WITH AMINO-PYRROLOPYRIMIDINONE COMPOUNDS” (Merck Sharp & Dohme LLC, priority 2020, published 2023).

Columns and labels:
CLL mouse models = conditions: Reiff et al. Cancer Discovery 2018
DLBCL mouse models = conditions: Reiff et al. Cancer Discovery 2018

O=C(c1ccc(Oc2ccccc2)cc1Cl)c1c[nH]c2ncnc(N[C@@H]3CC[C@@H](CO)OC3)c12 [Compound A]
efficacy compared with ibrutinib in CLL mouse models (CLL mouse models): superiority over ibrutinib
efficacy compared with ibrutinib in DLBCL mouse models (DLBCL mouse models): superiority over ibrutinib
